Experimental data as given in patent publication US20260042747A1, “KIT INHIBITORS, COMPOUNDS, PHARMACEUTICAL COMPOSITIONS, AND METHODS OF USE THEREOF” (Alivexis, Inc., priority 2022, published 2026).
Structures can show the parent of a compound that is named as a salt. Where two headings read alike, the source gives them in different places.

How the values were obtained:
[1] = target: recombinant human KIT tyrosine kinase protein (Homo sapiens (Human), UniProt P10721); test: KIT tyrosine kinase assay (ADP-Glo); assay type: biochemical
[2] = system: M-07e cells; test: SCF-dependent M-07e cell proliferation assay; assay type: cell-based, human; details: Homo sapiens, M-07e, 72 h, read-out: M-07e IC50
Protocol: SCF-dependent cell proliferation assay was developed to measure the inhibitory potency of the compounds in M-07e cells, which express wild-type human KIT protein. The assay was performed in 96-well plates and the IC50 of each KIT inhibitor was determined by CellTiter Glo Assay reagent and Victor X5 Multilabel Counter (Perkin Elmer).
M-07e cells were purchased from AcceGen Biotechnology. Cells were maintained with M-07e Growth medium: RPMI-1640 containing 20% FBS, 100 U/mL penicillin and 100 microgram/mL streptomycin, 10 ng/mL rhGM-CSF, 10 ng/mL rhSCF. M-07e cells were seeded at a density of 5000 cells/90 μL/well in 96-well plates. Test compounds were dissolved in 100% DMSO to make 20 mM stock solution and serially diluted 1:3 with 100% DMSO to make an 11-point dilution series with concen-trations from […] to 0.024 μM. The serially diluted compounds were then each diluted 1:50 with culture medium to obtain assay compound solutions containing 2% DMSO. Ten μL of assay compound solutions were added to the 90 μL of culture cell suspension in the 96-well plate, with a final DMSO concentration of 0.2%. The plates were then incubated in a 5% CO2 incubator at 37° C. for 3 days. To obtain Day Zero Controls for background calculation, cells were seeded at 5000 cells/100 μL in a new 96-well plate and processed on the same day. Both Day Zero controls and 3 day culture plates were then treated as follows. 100 μL of CellTiter Glo Assay reagent was added to each well and the plate was incubated at room temperature for 15 min on a shaker at 200-300 RPM. Then 100 μL of cell lysate samples were transferred to white wall 96-well plates and luminescence was measured by a plate reader. The luminescence of Day Zero Control was subtracted from the luminescence intensity of 3 day culture readings. The assay control for this experiment was cells treated with 0.2% DMSO in culture medium and wells with 100 μL of culture medium (0.2% DMSO without cells) were used as the blank for data analysis.
The IC50 value of each compound was determined by using % inhibition by nor-malizing inhibition in DMSO treated control wells to 0% using the following formula method: […]
Plot percent inhibition in proliferation of triplicates against the respective concen-trations of compound and fit the dose response curve using the sigmoidal dose response equation to generate the IC50 in GraphPad Prism 8 software.

[3] = SCF-dependent M-07e cell proliferation, 3 days, CellTiter Glo

Sequence of recombinant human KIT tyrosine kinase protein (P10721 546-976): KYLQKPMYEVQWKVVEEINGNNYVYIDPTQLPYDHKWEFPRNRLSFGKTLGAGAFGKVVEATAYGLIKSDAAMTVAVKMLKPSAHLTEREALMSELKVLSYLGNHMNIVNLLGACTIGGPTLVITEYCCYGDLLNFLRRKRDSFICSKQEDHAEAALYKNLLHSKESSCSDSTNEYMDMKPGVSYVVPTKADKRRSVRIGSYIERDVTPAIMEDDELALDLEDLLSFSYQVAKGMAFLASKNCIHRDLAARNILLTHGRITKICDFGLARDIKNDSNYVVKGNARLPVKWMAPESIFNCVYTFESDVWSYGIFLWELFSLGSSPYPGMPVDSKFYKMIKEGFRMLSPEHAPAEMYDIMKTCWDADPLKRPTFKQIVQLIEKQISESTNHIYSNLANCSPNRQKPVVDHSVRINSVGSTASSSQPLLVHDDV

IC50 ([1]; Table 99) [µM]	Compound	IC50 ([1]; Table 98) [µM]	IC50 [2] [µM]	IC50 [2, 3] [µM]
	CN(CC1CCC(F)(F)CC1)c1ccc(CNC(=O)c2ccc3c(c2)[nH]c(=O)n3C)cn1 [Example 70]	0.061	0.14	
	CN(CC1CCCCO1)c1ccc(CNC(=O)c2ccc3c(c2)[nH]c(=O)n3C)cn1 (centres unmarked) [Example 71]	0.06	0.31	
	CN(CC1CCOCC1)c1ccc(CNC(=O)c2ccc3c(c2)[nH]c(=O)n3C)cn1 [Example 72]	0.084	0.8	
	CN(Cc1cccc(F)c1)c1ccc(CNC(=O)c2ccc3c(c2)[nH]c(=O)n3C)cn1 [Example 73]	0.027	0.098	
	CN(Cc1ccccc1F)c1ccc(CNC(=O)c2ccc3c(c2)[nH]c(=O)n3C)cn1 [Example 74]	0.025	0.11	
	CN(c1ccc(CNC(=O)c2ccc3c(c2)[nH]c(=O)n3C)cn1)C12CC(C1)C2 [Example 75]	0.061	0.5	
	CN(Cc1ccccn1)c1ccc(CNC(=O)c2ccc3c(c2)[nH]c(=O)n3C)cn1 [Example 76]	0.086	1.6	
	CN(c1ccc(CNC(=O)c2ccc3c(c2)[nH]c(=O)n3C)cn1)C1CC(C)(C)C1 [Example 77]	0.029	0.11	
	CN(c1ccc(CNC(=O)c2ccc3c(c2)[nH]c(=O)n3C)cn1)C12CC(C)(C1)C2 [Example 78]	0.026	0.15	
	CN(c1ccc(CNC(=O)c2ccc3c(c2)[nH]c(=O)n3C)cn1)C12CC(C(F)(F)F)(C1)C2 [Example 80]	0.031	0.24	
	CC(c1ccccc1)N(C)c1ccc(CNC(=O)c2ccc3c(c2)[nH]c(=O)n3C)cn1 (centres unmarked) [Example 82]	0.075		0.73
	CC(C1CC1)N(C)c1ccc(CNC(=O)c2ccc3c(c2)[nH]c(=O)n3C)cn1 (centres unmarked) [Example 83]	0.041	0.3	
	CCC(C)N(C)c1ccc(CNC(=O)c2ccc3c(c2)[nH]c(=O)n3C)cn1 (centres unmarked) [Example 84]	0.016	0.18	
	CC(N(C)c1ccc(CNC(=O)c2ccc3c(c2)[nH]c(=O)n3C)cn1)C(F)(F)F (centres unmarked) [Example 86]	0.015	0.12	
	CN(c1ncc(CNC(=O)c2ccc3c(c2)[nH]c(=O)n3C)s1)C1CCC(F)(F)CC1 [Example 90]	0.048	1.8	
	CN(CC1CCC(F)(F)CC1)c1ncc(CNC(=O)c2ccc3c(c2)[nH]c(=O)n3C)s1 [Example 92]	0.059	1.9	
	Cn1c(=O)[nH]c2cc(C(=O)NCc3cnc(N(C)[C@H]4C[C@@H](C(F)(F)F)C4)cn3)ccc21 [Example 95]	0.024	0.19	
	Cn1c(=O)[nH]c2cc(C(=O)NCc3ccc(N4CCCC4(C)C)nc3)ccc21 [Example 97]	0.034	0.24	

IC50 ([1]; Table 99) [µM]	Compound	IC50 ([1]; Table 98) [µM]	IC50 [2] [µM]	IC50 [2, 3] [µM]
	C[C@H]1CCCN1c1cnc(CNC(=O)c2ccc3c(c2)[nH]c(=O)n3C)cn1 [Example 98]	0.071	0.99	
	C[C@@H]1CCCN1c1ccc(CNC(=O)c2ccc3c(c2)[nH]c(=O)n3C)cn1 [Example 99]	0.05	0.54	
	Cn1c(=O)[nH]c2cc(C(=O)NCc3cnc4c(ccn4-c4ccccc4F)c3)ccc21 [Example 100]	0.053	0.25	
0.051	CN(c1ccc(CNC(=O)c2ccc3c(c2)[nH]c(=O)n3C)cn1)C1CCCC(O)C1 (centres unmarked) [Example 104, N-((6-((3-Hydroxycyclohexyl)(methyl)amino)pyridin-3-yl)methyl)-1-methyl-2-oxo-2,3-d ihydro-1H-benzimidazole-5-carboxamide]			7.66
0.021	CN(c1ccc(CNC(=O)c2ccc3c(c2)[nH]c(=O)n3C)cn1)[C@H]1CCC(F)(F)C1 [Example 105, (S)—N-((6-((3,3-Difluorocyclopentyl)(methyl)amino)pyridin-3-yl)methyl)-1-methyl-2-o xo-2,3-dihydro-1H-benzimidazole-5-carboxamide]			0.013
0.022	CN(c1ccc(CNC(=O)c2ccc3c(c2)[nH]c(=O)n3C)cn1)C1CC2C(C1)C2(F)F (centres unmarked) [Example 108, N-((6-((6,6-Difluorobicyclo[3.1.0]hexan-3-yl)(methyl)amino)pyridin-3-yl)methyl)-1-met hyl-2-oxo-2,3-dihydro-1H-benzimidazole-5-carboxamide]			0.065
0.025	CN(c1ccc(CNC(=O)c2ccc3c(c2)[nH]c(=O)n3C)cn1)C1CC2(CC2)C1 [Example 109, 1-Methyl-N-((6-(methyl(spiro[2.3]hexan-5-yl)amino)pyridin-3-yl)methyl)-2-oxo-2,3-d ihydro-1H-benzimidazole-5-carboxamide formate]			0.012
0.033	CN(c1ccc(CNC(=O)c2ccc3c(c2)[nH]c(=O)n3C)cn1)[C@H]1CC[C@@H](F)C1 [Example 110, N-((6-(((1S,3R)-3-Fluorocyclopentyl)(methyl)amino)pyridin-3-yl)methyl)-1-methyl-2-ox o-2,3-dihydro-1H-benzimidazole-5-carboxamide]			0.055
0.021	CN(c1ccc(CNC(=O)c2cc3[nH]c(=O)n(C)c3cc2F)cn1)C1CCC(F)(F)CC1 [Example 115, N-((6-((4,4-Difluorocyclohexyl)(methyl)amino)pyridin-3-yl)methyl)-6-fluoro-1-methyl-2-oxo-2,3-dihydro-1H-benzimidazole-5-carboxamide]			0.07
0.02	CC(C)N(C)c1ccc(CNC(=O)c2ccc3[nH]c(=O)[nH]c3c2)cn1 [Example 129]			1.02
0.222	CC(NC(=O)c1ccc2c(c1)[nH]c(=O)n2C)c1ccc(N(C)C(C)C)nc1 (centres unmarked) [Example 130]			1.85
0.03	CN(c1ccc(CNC(=O)c2cc3[nH]c(=O)[nH]c3cc2F)cn1)C1CCC(F)(F)CC1 [Example 135]			0.589
0.027	CC(C)N(C)c1ccc(CNC(=O)c2cc3[nH]c(=O)[nH]c3cc2F)cn1 [Example 136]			0.209
0.023	CN(c1ccc(CNC(=O)c2cc3[nH]c(=O)[nH]c3cc2F)cn1)[C@H]1C[C@@H](C(F)(F)F)C1 [Example 137]			0.036
0.075	CN(c1ccc(CNC(=O)c2cc3[nH]c(=O)n(C)c3cc2F)cn1)C1CC(F)(F)C1 [Example 139]			0.636
0.018	CN(c1ccc(CNC(=O)c2cc3[nH]c(=O)[nH]c3cc2F)cn1)C1CCC(F)(F)C1 (centres unmarked) [Example 140]			0.099
0.035	CN(c1ccc(CNC(=O)c2cc(F)c3[nH]c(=O)[nH]c3c2)cn1)C1CCC(F)(F)CC1 [Example 143]			1.46

Compound	IC50 ([1]; Table 99) [µM]	IC50 ([1]; Table 98) [µM]	IC50 [2] [µM]	IC50 [2, 3] [µM]
Cn1c(=O)[nH]c2cc(C(=O)NCc3cnc4c(c3)CCN4c3c(F)cccc3F)ccc21 [Example 102]	0.055		0.27	
CN(c1ccc2c(c1)COC2)c1ccc(CNC(=O)c2ccc3c(c2)[nH]c(=O)n3C)cn1 [Example 119]	0.04		0.423	
CN(c1ccc(CNC(=O)c2ccc3c(c2)[nH]c(=O)n3C)cn1)C1Cc2ccccc2C1 [Example 120]	0.045		0.206	
CN(c1ccc(CNC(=O)c2ccc3c(c2)[nH]c(=O)n3C)cn1)C1CC2(COC2)C1 [Example 121]	0.059		1.35	
CN(c1ccc(CNC(=O)c2ccc3c(c2)[nH]c(=O)n3C)cn1)[C@@H]1CCC(F)(F)C1 [Example 122]	0.032		0.014	
CN(c1ccc(CNC(=O)c2ccc3c(c2)[nH]c(=O)n3C)cn1)C1CC2(C1)CC2(F)F (centres unmarked) [Example 125]	0.031		0.151	
CN(c1ccc(CNC(=O)c2ccc3c(c2)[nH]c(=O)n3C)cn1)C1[C@H]2CC(F)(F)C[C@@H]12 (some centres unmarked) [Example 126]	0.033		0.806	
CN(c1ccc(CNC(=O)c2ccc3c(c2)[nH]c(=O)n3C)cn1)[C@H]1C[C@@H]1C(F)(F)F [Example 127]	0.047		1.32	
CN(c1ccc(CNC(=O)c2ccc3c(c2)[nH]c(=O)n3C)cn1)[C@@H]1CC[C@H](F)C1 [Example 134]	0.038		0.062	
CN(c1cnc(CNC(=O)c2cc3[nH]c(=O)[nH]c3cc2F)cn1)C1CCC(F)(F)C1 (centres unmarked) [Example 138]	0.035		4.57	
CN(c1ccc(CNC(=O)c2cc(F)c3[nH]c(=O)[nH]c3c2)cn1)[C@H]1C[C@@H](C(F)(F)F)C1 [Example 142]	0.018		0.278	
